# ChEMBL document CHEMBL1201862, “PubChem BioAssay data set” (2004)
# The source made the active and inactive calls.
# Experiments:
# [1] = target: T1, Fatty acid synthase (Homo sapiens, UniProt P49327); assay: FAS thioesterase domain inhibitors, dose response, biochemical, endpoint fluorescence intensity, uHTS hits (AID 624327); assay type: functional;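 also: fluorescence from hydrolysis of an O-methyl fluorescein acyl ester substrate by the enzyme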
# [2] = target: T1, Fatty acid synthase; assay: FAS thioesterase domain inhibitors, dose response, biochemical, kinetic fluorescence intensity (AID 624326); assay type: functional;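 also: rate of fluorescence rise from hydrolysis of a fluorogenic O-methyl fluorescein ester substrate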
# [3] = target: Cytochrome P450 2C19 (Homo sapiens, UniProt P33261); assay: Cytochrome panel assay with activity outcomes. Panel member name: p450-cyp2c19 Compounds with AC50 equal or less than 10 uM are considered active; assay type: functional; conditions: read-out: AC50
# [4] = target: T2, Cytochrome P450 1A2 (Homo sapiens, UniProt P05177);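 also: PubChem cytochrome P450 panel assay, CYP1A2 panel member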
# T2 sequence (P05177 whole entry): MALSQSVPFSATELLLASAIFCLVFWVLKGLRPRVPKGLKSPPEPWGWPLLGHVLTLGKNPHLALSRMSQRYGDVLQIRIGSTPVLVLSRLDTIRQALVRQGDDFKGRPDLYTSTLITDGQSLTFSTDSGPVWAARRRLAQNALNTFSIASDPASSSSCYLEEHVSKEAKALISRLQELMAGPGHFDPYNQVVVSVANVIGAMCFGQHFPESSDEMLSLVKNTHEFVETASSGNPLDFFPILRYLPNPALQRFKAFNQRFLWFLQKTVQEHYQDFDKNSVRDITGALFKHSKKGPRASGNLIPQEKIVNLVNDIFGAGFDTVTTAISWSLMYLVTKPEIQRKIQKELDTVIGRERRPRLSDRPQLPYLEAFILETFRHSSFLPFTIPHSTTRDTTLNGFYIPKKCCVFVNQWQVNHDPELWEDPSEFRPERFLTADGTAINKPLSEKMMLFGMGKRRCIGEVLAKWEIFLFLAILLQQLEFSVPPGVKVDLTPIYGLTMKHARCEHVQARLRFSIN
# [5] = target: T3, Cytochrome P450 2C9 (Homo sapiens, UniProt P11712)
# [6] = NIH-3T3 fibroblast cytotoxicity, dose response, cytotoxicity control, cell-based, fluorescence, Alamar Blue, secondary assay (AID 2327); assay type: functional;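 also: NIH-3T3 mouse fibroblasts cultured with fluconazole at 8 µg/mL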
# [7] = microbe, parasite or virus in culture; assay type: functional; conditions: Mycobacterium tuberculosis
# [8] = target: Cytochrome P450 3A4 (Homo sapiens, UniProt P08684);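 also: CYP3A4 tested as one member of a cytochrome P450 panel screen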
# [9] = target: T3, Cytochrome P450 2C9; remark: listed apart in the source
# [10] = Luminescence Cell-Based Dose Retest to Confirm Inhibitors of Cancer Stem Cells. [Related pubchem assays (depositor defined):AID2717, AID2721]; assay type: functional; conditions: Homo sapiens
# T3 sequence (P11712 whole entry): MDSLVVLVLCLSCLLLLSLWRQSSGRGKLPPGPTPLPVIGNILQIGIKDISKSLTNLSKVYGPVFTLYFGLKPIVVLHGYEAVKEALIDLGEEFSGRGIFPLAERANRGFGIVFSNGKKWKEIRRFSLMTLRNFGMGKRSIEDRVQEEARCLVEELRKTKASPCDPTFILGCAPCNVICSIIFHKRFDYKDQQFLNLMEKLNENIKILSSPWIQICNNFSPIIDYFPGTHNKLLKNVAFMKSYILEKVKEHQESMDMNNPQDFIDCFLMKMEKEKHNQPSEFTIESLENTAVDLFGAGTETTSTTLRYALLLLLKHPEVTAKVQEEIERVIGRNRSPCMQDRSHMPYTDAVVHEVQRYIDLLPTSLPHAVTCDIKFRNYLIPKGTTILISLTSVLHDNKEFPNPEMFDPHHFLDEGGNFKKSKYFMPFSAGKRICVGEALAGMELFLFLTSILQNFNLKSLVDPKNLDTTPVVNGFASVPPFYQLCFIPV
# T1 sequence (P49327 whole entry, the tested form may be a part): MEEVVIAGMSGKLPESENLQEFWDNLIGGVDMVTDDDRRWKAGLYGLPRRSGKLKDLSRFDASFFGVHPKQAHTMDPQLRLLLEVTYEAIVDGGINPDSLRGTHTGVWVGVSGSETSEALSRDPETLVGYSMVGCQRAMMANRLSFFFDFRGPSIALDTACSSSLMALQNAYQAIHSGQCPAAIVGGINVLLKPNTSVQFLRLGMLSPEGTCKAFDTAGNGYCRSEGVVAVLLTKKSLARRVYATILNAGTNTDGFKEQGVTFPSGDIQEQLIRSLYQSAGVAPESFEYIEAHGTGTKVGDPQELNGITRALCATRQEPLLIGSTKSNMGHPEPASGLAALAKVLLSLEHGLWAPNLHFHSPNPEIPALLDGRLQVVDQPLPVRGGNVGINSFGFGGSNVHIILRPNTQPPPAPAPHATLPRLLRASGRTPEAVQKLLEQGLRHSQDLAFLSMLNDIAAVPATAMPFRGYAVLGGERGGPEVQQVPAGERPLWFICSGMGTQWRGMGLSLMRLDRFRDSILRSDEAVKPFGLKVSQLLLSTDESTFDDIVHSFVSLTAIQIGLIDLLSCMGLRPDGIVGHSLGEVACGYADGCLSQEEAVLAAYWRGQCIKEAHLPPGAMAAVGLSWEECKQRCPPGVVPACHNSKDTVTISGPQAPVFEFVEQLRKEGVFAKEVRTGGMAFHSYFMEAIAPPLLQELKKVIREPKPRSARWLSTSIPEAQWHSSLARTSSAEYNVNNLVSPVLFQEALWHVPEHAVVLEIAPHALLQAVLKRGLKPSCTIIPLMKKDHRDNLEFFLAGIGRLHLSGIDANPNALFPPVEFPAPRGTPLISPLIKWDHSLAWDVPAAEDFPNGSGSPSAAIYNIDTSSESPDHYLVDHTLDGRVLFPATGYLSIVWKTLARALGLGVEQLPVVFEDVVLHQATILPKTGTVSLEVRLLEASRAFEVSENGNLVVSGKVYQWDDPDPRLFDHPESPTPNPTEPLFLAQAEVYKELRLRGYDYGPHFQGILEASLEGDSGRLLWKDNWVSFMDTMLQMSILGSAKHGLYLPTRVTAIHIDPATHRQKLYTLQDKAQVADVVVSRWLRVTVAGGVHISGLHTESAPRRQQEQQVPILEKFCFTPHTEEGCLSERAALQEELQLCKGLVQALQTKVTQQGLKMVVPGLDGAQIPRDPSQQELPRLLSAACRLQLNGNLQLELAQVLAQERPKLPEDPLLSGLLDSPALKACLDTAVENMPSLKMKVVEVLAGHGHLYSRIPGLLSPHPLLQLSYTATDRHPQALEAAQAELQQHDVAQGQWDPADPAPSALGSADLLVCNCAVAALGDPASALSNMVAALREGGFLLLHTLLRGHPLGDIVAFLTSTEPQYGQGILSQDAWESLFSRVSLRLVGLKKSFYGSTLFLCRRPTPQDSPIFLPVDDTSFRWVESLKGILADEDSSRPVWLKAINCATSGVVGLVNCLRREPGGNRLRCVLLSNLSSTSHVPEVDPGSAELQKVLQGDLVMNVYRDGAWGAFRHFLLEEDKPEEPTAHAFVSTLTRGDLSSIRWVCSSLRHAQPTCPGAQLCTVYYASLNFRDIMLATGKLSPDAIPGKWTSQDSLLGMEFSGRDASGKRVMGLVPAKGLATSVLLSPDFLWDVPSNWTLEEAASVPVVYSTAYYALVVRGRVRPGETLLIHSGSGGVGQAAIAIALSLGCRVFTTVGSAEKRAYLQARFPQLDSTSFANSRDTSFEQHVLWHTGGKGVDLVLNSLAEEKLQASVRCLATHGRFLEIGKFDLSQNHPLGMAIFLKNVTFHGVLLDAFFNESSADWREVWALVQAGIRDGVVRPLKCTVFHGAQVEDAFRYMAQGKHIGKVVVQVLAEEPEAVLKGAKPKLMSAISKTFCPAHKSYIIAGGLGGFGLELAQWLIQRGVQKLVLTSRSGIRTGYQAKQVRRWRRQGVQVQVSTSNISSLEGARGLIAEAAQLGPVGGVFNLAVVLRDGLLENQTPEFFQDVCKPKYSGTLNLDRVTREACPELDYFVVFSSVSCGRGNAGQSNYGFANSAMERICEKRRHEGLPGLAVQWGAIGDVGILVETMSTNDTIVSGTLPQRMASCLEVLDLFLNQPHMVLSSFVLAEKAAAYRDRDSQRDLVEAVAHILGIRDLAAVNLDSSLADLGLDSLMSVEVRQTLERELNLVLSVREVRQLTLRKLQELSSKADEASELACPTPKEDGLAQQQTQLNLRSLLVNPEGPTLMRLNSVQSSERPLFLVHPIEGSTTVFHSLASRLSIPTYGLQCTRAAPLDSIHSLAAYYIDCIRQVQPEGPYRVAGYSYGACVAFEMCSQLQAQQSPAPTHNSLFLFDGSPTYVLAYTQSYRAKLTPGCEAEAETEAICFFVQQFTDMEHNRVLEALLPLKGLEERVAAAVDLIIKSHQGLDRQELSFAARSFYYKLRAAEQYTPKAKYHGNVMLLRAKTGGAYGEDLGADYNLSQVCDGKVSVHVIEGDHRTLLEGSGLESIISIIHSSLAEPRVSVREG
# Sequence of Cytochrome P450 2C19 (P33261 whole entry): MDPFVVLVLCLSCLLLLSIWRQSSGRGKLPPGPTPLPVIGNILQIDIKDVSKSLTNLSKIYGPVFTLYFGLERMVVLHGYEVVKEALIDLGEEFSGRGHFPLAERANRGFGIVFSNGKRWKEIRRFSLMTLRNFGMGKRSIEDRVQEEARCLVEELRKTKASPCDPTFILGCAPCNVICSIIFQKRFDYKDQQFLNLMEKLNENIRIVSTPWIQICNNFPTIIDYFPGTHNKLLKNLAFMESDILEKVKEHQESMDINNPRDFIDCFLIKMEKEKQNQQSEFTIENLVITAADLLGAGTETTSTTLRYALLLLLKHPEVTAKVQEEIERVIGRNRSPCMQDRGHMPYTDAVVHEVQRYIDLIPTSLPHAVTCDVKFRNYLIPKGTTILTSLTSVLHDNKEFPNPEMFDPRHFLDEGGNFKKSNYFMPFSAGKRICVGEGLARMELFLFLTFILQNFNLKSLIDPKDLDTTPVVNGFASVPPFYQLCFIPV
# Sequence of Cytochrome P450 3A4 (P08684 whole entry): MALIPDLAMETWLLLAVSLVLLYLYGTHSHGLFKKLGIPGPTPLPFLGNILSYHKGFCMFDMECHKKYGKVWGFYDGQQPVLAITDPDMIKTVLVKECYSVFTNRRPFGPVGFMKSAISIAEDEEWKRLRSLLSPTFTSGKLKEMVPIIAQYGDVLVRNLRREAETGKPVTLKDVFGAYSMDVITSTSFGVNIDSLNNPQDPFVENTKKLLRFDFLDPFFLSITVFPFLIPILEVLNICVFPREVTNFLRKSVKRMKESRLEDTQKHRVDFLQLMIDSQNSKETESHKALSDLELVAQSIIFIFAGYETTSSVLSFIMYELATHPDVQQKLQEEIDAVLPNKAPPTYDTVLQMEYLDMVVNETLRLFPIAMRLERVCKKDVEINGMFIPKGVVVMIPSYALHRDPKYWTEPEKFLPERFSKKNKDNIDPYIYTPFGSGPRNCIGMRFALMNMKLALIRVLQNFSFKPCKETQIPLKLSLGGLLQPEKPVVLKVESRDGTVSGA
compound,measurement,setting,value
COc1ccc(C2=NN(C(=O)CSc3nc(=O)n4cc(C)ccc4n3)C(c3ccc(C)cc3)C2)cc1 (configuration not stated),IC50,[1],19.2 µM (active)
same,IC50,[2],12.9 µM (active)
NP(=O)(Oc1ccccc1Cl)Oc1ccccc1Cl,IC50,[1],5.09 µM (active)
same,IC50,[2],8.31 µM (active)
Cc1cc(C)cc(-n2nnnc2SCC(=O)Nc2nc(-c3ccc(F)cc3)cs2)c1,AC50,[3],5.01 µM (inconclusive)
same,AC50,[4],3.16 µM (inconclusive)
same,AC50,[5],inconclusive
CCS(=O)(=O)c1ccc(-c2cccc(NC(=O)COc3ccc(Cl)cc3)c2)nn1,EC50,[6],> 150 µM (inactive)
O=C(O)CC(NC(=O)CC(c1ccccc1)c1ccccc1)c1cccc([N+](=O)[O-])c1 (configuration not stated),IC50,[1],7.88 µM (active)
same,IC50,[2],9.88 µM (active)
COc1ccc(N2COC3c4cccc5cccc(c45)C32)cc1 (configuration not stated),CC50,[7],> 40 µM (active)
Cc1ccc(OC(=O)c2oc3ccc(F)cc3c2C)c(C)c1,CC50,[7],3.94 µM (active)
same,AC50,[3],11.2 µM (inconclusive)
same,AC50,[8],39.8 µM (inconclusive)
same,AC50,[9],10 µM (inconclusive)
COc1ccc(S(=O)(=O)N2CCC(C(=O)NCC3CCCO3)CC2)cc1C (configuration not stated),AC50,[8],15.8 µM (inconclusive)
same,AC50,[5],inconclusive
O=C(Nc1ccccc1[N+](=O)[O-])OCC=Cc1ccccc1,IC50,[1],8.17 µM (active)
same,IC50,[2],6.3 µM (active)
CC(C)c1ccc2c(c1)c(SC(C)(C)C)c(CC(C)(C)C(=O)O)n2Cc1ccc(Cl)cc1,AC50,[10],1.58 µM (active)
same,IC50,[1],10.1 µM (active)
same,IC50,[2],8.48 µM (active)
